This note sets out measurements from patent US9829488B2, “Paper-based cellular arrays” (President and Fellows of Havard College, priority 2008, dated 2017).

In assay [1] the test system is PC-12 rat adrenal pheochromocytoma cell line. Put plainly: Proliferation of PC-12 cells in MATRIGEL-permeated paper (phalloidin stain, gel scanner). The class given is cell-based. Conditions: serum-containing media, 100 ng/mL NGF. Here is the method:
First, we assessed the proliferation of PC-12 cells grown in paper in response to NGF. Suspensions of PC12 cells in MATRIGEL™ (1 uL, 5×10^6 cells/mL) were spotted onto filter paper. The paper was placed in serum-containing media (2.5% fetal bovine serum, 15% horse serum in F12K basal media) or serum-containing media supplemented with 100 ng/mL of nerve growth factor (NGF). Cells within paper MATRIGEL™ matrix were cultured for the indicated times, fixed with formaldehyde, and stained with Alexa Fluor 488-conjugated phalloidin. The paper was scanned using a Typhoon fluorescent gel scanner (see FIG. 13A). Error bars are one standard deviation.

The test system of assay [2] is PC-12 cells. In words: Neuronal differentiation of PC-12 cells in paper-supported MATRIGEL (confocal microscopy, neurites). The class given is cell-based, rat. Conditions: 6 days, 100 ng/mL NGF. The text has this:
Next, we assessed whether PC-12 cells maintained in paper-supported three-dimensional matrices were differentiated into neurons using NGF-treatment. We spotted suspensions of PC12 cells in MATRIGEL™ onto paper and suspended the paper in the media supplemented with NGF or with a combination of NGF and the ROCK inhibitor Y27632. Confocal microscopy examination uncovered neuron-like cells with long neurites. The morphology of cells and length of neurites varied when different media/additives were used.

Assay [3] deals with PC-12 cells. In words: Quantitative PCR of neuronal transcripts NF-L and NPY in PC-12 cells. Conditions: 100 ng/mL, day 3 or 4, GAPDH as reference. The class given is cell-based, rat. The procedure:
Finally, we compared the differentiation of PC-12 cells maintained in paper-supported MATRIGEL™ (“paper”) with that of cells in paper-free MATRIGEL™ (“3D”) or on MATRIGEL™ coated surfaces (“2D”).
Cells in these matrices were proliferated in serum-containing media or in media supplemented with 100 ng/mL NFG. On day 3 or 4, the samples were processed to isolate mRNA and the level of expression of NF-L or NPY were assessed by quantitative PCR. GAPDH and actin were used as housekeeping controls. ΔΔCT-analysis was performed in the linear range for every primer using GAPDH as a reference. In FIG. 14, each data point is an average of measurements from 3 independent samples. The error bar is one standard deviation.

The subject of another assay is 3T3 fibroblasts. Put plainly: Proliferation of 3T3 fibroblasts in MATRIGEL-permeated paper in 96-well plate (Alamar Blue). The class given is cell-based. Conditions: colchicine added to the wells. From the text: One exemplary method is depicted in FIG. 8. In this method, a paper array of the same size is distributed to each well of the microtiter plate to ensure delivery of nearly identical number of cells per well (FIG. 8A). To illustrate this strategy, 2 mm×4 mm pieces of filter paper were permeated with suspension of 3T3 fibroblasts in MATRIGEL™ and then distributed into the wells of a 96-well plate. Alamar Blue was used to estimate the number of cells. […] 3T3 cells proliferated within MATRIGEL™-soaked paper but not within the MATRIGEL™-free paper (FIG. 8B), and this proliferation was halted when colchicine was added to the wells. This system, therefore, can be used to screen for agents that influence proliferation of cells in three-dimensional arrays.
A general note: Resazurin is reduced to fluorescent resorufin, in cell work by metabolically active cells.

The next assay relates to HUVEC. In words: Three-dimensional migration (invasion) of HUVEC cells in MATRIGEL-permeated paper. It counts as cell-based, human. The procedure:
A suspension of cells in […]™ (1 μL, 10^7 cells/mL) was spotted onto paper, and the paper was immersed in […]™. […] Migration of the cells into the surrounding […]™ was monitored over time using a fluorescent gel scanner. […] The radius of the cell-containing spot served as the measure of the migration. Cell-containing sheets were suspended in endothelial culture media supplemented with 100 ng/mL VEGF (“VEGF”) or 10 μM of small molecule inhibitor of Rho kinase Y27632 (“Y27632”).

NGF: nerve growth factor: the “effect on growth rate of the cells” value in assay [1] was “little effect”. Besides, the “neurites developed by cells” value in the assay with PC-12 cells [2] (serum containing media) was “short neurites”. Besides, in the assay on PC-12 cells [2] (serum-free media), the “neurites developed by cells” value is reported as “longer neurites”. Besides, in the assay on PC-12 cells [3], the “level of NF-L expression” value is “induced” and the “level of NPY expression” value is listed as “induced”.

Regarding `COc1cc2c(c(OC)c1OC)-c1ccc(OC)c(=O)cc1[C@@H](NC(C)=O)CC2` [colchicine], in the assay with 3T3 fibroblasts, the “proliferation of 3T3 cells within MATRIGEL-soaked paper” value was “halted”.

In the case of VEGF, the “radius of the invasion” value with HUVEC (EGM with additional 100 ng/mL VEGF, compared with EGM+10 μM Y27632) is listed as “significantly lower”.

In the case of `C[C@@H](N)[C@H]1CC[C@H](C(=O)Nc2ccncc2)CC1` [Y27632, reference compound], in the assay with HUVEC (endothelial culture media + 10 μM Y27632), the “outgrowth of cells (migration into surrounding MATRIGEL)” value is recorded as “promoted”. The “neurites developed by cells” value in the assay on PC-12 cells [2] (serum-free media, 5 μM Y27632) is on record as “extensive 3D network of interconnected neurites”.
